Values quoted from earlier work, collected in US20160168384A1, “PORPHYRINOID COMPONENTS, METHOD AND APPARATUS FOR WATER PHOTODISINFECTION” (NIMARTECH LIMITED, priority 2013, published 2016).

Test system: faecal coliforms
Details: wastewater; micromolar porphyrin; visible light or sunlight, about 4 hours

SMILES: C[n+]1ccc(-c2c3nc(c(-c4cc[n+](C)cc4)c4ccc([nH]4)c(-c4cc[n+](C)cc4)c4nc(c(-c5cc[n+](C)cc5)c5ccc2[nH]5)C=C4)C=C3)cc1 [Sample C1, meso-tetra(N,N,N,N-methyl-pyridyl)porphine]
- decrease of coliform counts: at least 5 logs
